Measurements from US20260085101A1, “NOVEL PLATELET DERIVED GROWTH FACTOR PEPTIDE MIMETIC” (THE UNIVERSITY OF SYDNEY, priority 2022, published 2026).

What was measured:
Type in all cases: cell-based
[1] = tested on: C3H10T½ mouse embryonic fibroblasts; experiment: EdU proliferation assay (flow cytometry); details: C3H10T½ cells; 10 μM AG1296 with 20 ng/ml PDGF−BB
Description: FIG. 8. Proliferation of C3H10T½ Cells Following Treatment with PDGF and Novel PDGF Mimetic Peptides. Cultured C3H10T½ mouse embryonic fibroblast cells were treated with 20 ng/ml recombinant PDGF−AB or PDGF−BB protein ligands, and 2 μg/ml of novel PDGF mimetics JC5 or JC5a for 24 hr, in the presence of 1% fetal bovine serum (FBS). Percent proliferating cell was determined after a 2 hr pulse with nucleotide analogue EdU at the end of the incubation period. […] Co-treatment of protein/peptides with 10 μM of PDGF receptor antagonist, AG1296, confirmed that PDGF-BB-stimulated proliferation occurred via the PDGF ligand/receptor pathway. […] Error bars represent ±SD, n=3. Statistical analysis was using One-Way Anova: * p<0.05; ** p<0.01; *** p<0.001; **** p<0.0001. The mitotic effects of PDGF mimetic peptides JC5 and JC5a were tested using cultured C3H10T½ mouse embryonic fibroblasts. Proliferation was assayed after a pulse of nucleotide analogue 5-ethynyl-2′-deoxyuridine (EdU) and fluorescent detection using flow cytometry. Cells were treated with 20 ng/ml PDGF−BB or PDGF−AB, and 2 μg/ml of peptides JC5 or JC5a, in the presence of 1% fetal bovine serum (FBS) and DMEM for 24 hr. 10% FBS was used as a positive control, and co-treatments with specific PDGF receptor antagonist, AG1296, was used to ascertain whether proliferation occurred via the PDGF ligand/receptor pathway. Assays were performed in biological triplicate.

C2C12 mouse myoblasts [2] = experiment: Scratch migration (chemotaxis) assay on C2C12 cells
Description: FIG. 2. Migration of C2C12 Mouse […] Cells Treated with PDGF and peptides JC5 and JC5a. C2C12 mouse fibroblast cells migrate across the scratch over 24 hours. Cells were treated with 10 ng/ml PDGF−AB (n=6), PDGF−BB (n=6), and 1 μg/ml of novel PDGF mimetic JC5 (n=6) and JC5a (n=3). […] There was also no statistically significant difference between the PDGF mimetic peptides and PDGF−AB and −BB positive controls. Error bars represent ±SD. The function of Compounds Ia (also referred to herein as JC5) and Ib (also referred to herein as JC5a) has been tested in vitro on the continuous cell line, C2C12 mouse myoblasts. In these in vitro assays recombinant PDGF−AB and −BB have been used as positive controls along with a serum starved no treatment control and the PDGF receptor inhibitor AG1296 co-treated with PDGF−AB as a negative control. The in vitro assays were designed to assess the major known functions of PDGF whilst also considering functions that are relevant to its in vivo applications. These functions were chemotaxis, collagen contraction, vascular tube formation and activation of the PDGF receptors via phosphorylation of Akt and Erk. Chemotaxis was assessed by making a scratch through a 2D culture of C2C12 cells following treatment with the four controls and the peptides JC5 and JC5a. They were then incubated for 24 hours at 37° C. Migration of the cells across the scratch at the conclusion of the incubation was measured and compared to the relevant controls described above. PDGF is a well-established mediator of chemotaxis and is expected to increase migration of the cells across the scratch over the course of 24 hours post treatment.

C2C12 mouse myoblasts [3] = experiment: Collagen gel contraction assay with C2C12 cells
Source text: FIG. 3. Collagen Contraction of C2C12 Mouse Fibroblasts Treated with PDGF and peptides JC5 and JC5a. […] Error bars represent ±SD, n=8/4. The function of Compounds Ia (also referred to herein as JC5) and Ib (also referred to herein as JC5a) has been tested in vitro on the continuous cell line, C2C12 mouse myoblasts. In these in vitro assays recombinant PDGF−AB and −BB have been used as positive controls along with a serum starved no treatment control and the PDGF receptor inhibitor AG1296 co-treated with PDGF−AB as a negative control. The in vitro assays were designed to assess the major known functions of PDGF whilst also considering functions that are relevant to its in vivo applications. These functions were chemotaxis, collagen contraction, vascular tube formation and activation of the PDGF receptors via phosphorylation of Akt and Erk. Collagen contraction is an important function during wound healing of many tissues including the heart. This can be simulated in vitro using a collagen gel contraction assay. This was assessed using C2C12 cells treated with the positive controls 10 ng/ml recombinant PDGF-BB and PDGF−AB, negative control 10 μM AG1296 co-treated with 10 ng/ml recombinant PDGF−AB, a serum starved no treatment control and 1 μg/ml of the peptides JC5 and JC5a. C2C12 mouse myoblasts were seeded in a 3D collagen gel crosslinked with NaOH and incubated at 37° C. for 24 hours following treatment with the four controls and peptides JC5 and JC5a.

[4] = tested on: primary human coronary artery endothelial cells (HCAECs); experiment: Vascular tube forming assay on Geltrex; details: 24 hours
Description: FIG. 4. Tube formation of Human Coronary Artery Endothelial Cells Treated with PDGF and PDGF Mimetic Peptide JC5. Human coronary artery endothelial cells treated with 50 ng/ml of PDGF−AB and PDGF−BB produced longer tubes than untreated cells and cells treated with the PDGF receptor inhibitor AG1296+PDGF−AB. […] Error bars represent ±SD, n=3/group.
PDGF has a well-established role in angiogenesis in vivo. To simulate this function in vitro a vascular tube forming assay on primary human coronary artery endothelial cells (HCAECs) was carried out. Cells were seeded on top of 3D growth factor reduced Geltrex basement membrane extract and incubated for 24 hours following treatment with the PDGF−AB, PDGF-BB, no treatment control, AG1296+PDGF−AB negative control, and peptides JC5 and JC5a. Over the course of 24 hours the cells form tubes throughout the gel. PDGF is reported to facilitate tube formation of endothelial cells in in vitro 3D assays.
Cells treated with 50 ng/ml of PDGF−AB, PDGF-BB, and 5 μg/ml of JC5 produced longer more uniform tubes than untreated cells and cells treated with the negative control 10 μM PDGF receptor inhibitor AG1296 co-treated with 50 ng/ml PDGF−AB (FIG. 4). The positive controls PDGF−AB and PDGF−BB produced tubes that were 560.7 μm (±53.93) and 616.3 μm (±39.07), respectively. […] The no treatment control and AG1296+PDGF−AB negative control produced tubes that were 305 μm and 307.7 μm, respectively. […] In summary, JC5 has similar vascular tube forming ability to recombinant human PDGF−AB and PDGF-BB.

PDGF receptor = target: T1, PDGF receptor (Mus musculus, UniProt P05622); experiment: Western blot for phosphorylation of ERK in C2C12 cells (PDGF receptor activation); details: 10 ng/ml PDGF, 1 μg/ml peptide, vs no treatment and AG1296+PDGF−AB controls
T1 construct: Phosphorylation of ERK following treatment of C2C12 Cells with PDGF and JC5; endogenous in cells; host or cells: C2C12 mouse myoblasts
Description: FIG. 5. Phosphorylation of ERK following treatment of C2C12 Cells with PDGF and JC5. Western blots for total (ERK) and phosphorylated ERK (pERK) at 42 and 44 kDa show an increase in phosphorylation following treatment with 10 ng/ml PDGF−BB and 1 μg/ml of JC5. FIG. 6. Phosphorylation of ERK following treatment of C2C12 Cells with PDGF and JC5a. Western blots for total (ERK) and phosphorylated ERK (pERK) at 42 and 44 kDa show an increase in phosphorylation 10 minutes post treatment with 10 ng/ml PDGF−BB and 1 μg/ml of novel mimetic peptide JC5a. JC5a maintained this increased phosphorylation of ERK at 30 minutes post treatment. PDGF receptor activation takes place via autophosphorylation of tyrosine […] residues at key sites throughout the intracellular domain. Autophosphorylation engages different signaling pathways, including ERK (MAPK) which participates in proliferation, cell survival, angiogenesis, and chemotactic activity of cells. Phosphorylation of ERK indicates successful activation of the PDGF receptor.

T1 sequence (P05622 32-1098): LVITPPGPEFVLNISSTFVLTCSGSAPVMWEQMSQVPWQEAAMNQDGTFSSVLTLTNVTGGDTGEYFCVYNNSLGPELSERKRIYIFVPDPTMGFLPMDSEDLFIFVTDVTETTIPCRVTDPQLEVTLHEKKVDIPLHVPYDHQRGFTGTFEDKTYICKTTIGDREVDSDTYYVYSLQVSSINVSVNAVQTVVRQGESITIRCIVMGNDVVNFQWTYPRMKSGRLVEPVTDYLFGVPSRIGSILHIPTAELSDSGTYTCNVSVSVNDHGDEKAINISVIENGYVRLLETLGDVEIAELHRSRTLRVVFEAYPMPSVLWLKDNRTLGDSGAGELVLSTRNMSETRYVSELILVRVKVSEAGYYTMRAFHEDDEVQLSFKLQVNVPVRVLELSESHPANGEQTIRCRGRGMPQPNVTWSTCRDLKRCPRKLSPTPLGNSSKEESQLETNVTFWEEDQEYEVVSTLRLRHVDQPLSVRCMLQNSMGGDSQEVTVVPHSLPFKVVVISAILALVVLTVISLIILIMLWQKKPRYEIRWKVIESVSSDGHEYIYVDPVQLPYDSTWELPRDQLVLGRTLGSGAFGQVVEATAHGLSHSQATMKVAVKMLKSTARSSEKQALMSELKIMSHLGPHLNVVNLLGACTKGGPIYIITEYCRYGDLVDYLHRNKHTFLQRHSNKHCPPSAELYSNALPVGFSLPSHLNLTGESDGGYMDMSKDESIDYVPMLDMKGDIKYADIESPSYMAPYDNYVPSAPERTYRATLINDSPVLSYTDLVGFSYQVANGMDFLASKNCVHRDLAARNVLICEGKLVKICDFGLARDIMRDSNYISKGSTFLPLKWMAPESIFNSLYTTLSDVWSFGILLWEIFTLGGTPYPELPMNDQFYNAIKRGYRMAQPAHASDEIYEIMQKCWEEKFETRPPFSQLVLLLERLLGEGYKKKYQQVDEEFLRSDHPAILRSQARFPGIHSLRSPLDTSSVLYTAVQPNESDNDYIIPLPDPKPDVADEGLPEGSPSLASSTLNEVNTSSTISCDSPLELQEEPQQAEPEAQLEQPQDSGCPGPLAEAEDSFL

Compound | effect of AG1296 co-treatment on PDGF−BB-stimulated EdU uptake [1] | migration of cells across the scratch (C2C12 mouse myoblasts [2]; 24 hours at 37° C., 10 ng/ml PDGF, 1 μg/ml peptides, mean (±SD)) | increase in migration compared to the negative control (Mean Diff) (C2C12 mouse myoblasts [2]; 24 hours, vs AG1296+PDGF−AB negative control) | increase in migration compared to the no treatment control (Mean Diff.) (C2C12 mouse myoblasts [2]; 24 hours, vs no treatment control) | collagen gel contracted to % of its initial surface area (C2C12 mouse myoblasts [3]; 24-hour incubation, 10 ng/ml PDGF, 1 μg/ml peptides, 10 μM AG1296, mean (±SD)) | difference in collagen gel area versus negative control AG1296 co-treated with PDGF−AB (Mean Diff.) (C2C12 mouse myoblasts [3]; 24 hours, vs negative control (55.25%)) | difference in collagen gel area versus no treatment control (Mean Diff.) (C2C12 mouse myoblasts [3]; 24 hours, vs no treatment control (41.27%)) | tube length ([4]; 50 ng/ml PDGF, 5 μg/ml JC5, 10 μM AG1296, mean (±SD)) | increased tube length compared to the negative control (Mean Diff.) ([4]; vs AG1296+PDGF−AB (307.7 μm)) | increased tube length compared to the no treatment control (Mean Diff.) ([4]; vs no treatment control (305 μm)) | phosphorylation of ERK (pERK) (PDGF receptor)
COc1cc2ncc(-c3ccccc3)nc2cc1OC [AG1296, reference compound] | significantly inhibited |  |  |  |  |  |  |  |  |  | 
PDGF−BB: recombinant human PDGF-BB protein ligand, positive control |  | 75.02% | 58.45% | 54.70% | 23.42% | 31.83% | 17.86% | 616.3 μm | 308.7 μm | 311.3 μm | phosphorylation of ERK (pERK) can be seen
